Counter-ions that a name gives are not always drawn.
Legend:
[1] = test system: coronary artery; test: Coronary Vasodilating Effect in Anesthetized Dogs (direct intracoronary administration); type: in vivo; details: 1 μg directly into coronary artery; for Overall increase in coronary blood flow at 1 μg: area under the percent increase in coronary blood flow
Experimental: (1) Coronary Vasodilating Effect in Anesthetized Dogs
In open-chest dogs anesthetized with 30 mg/kg i.v. of pentobarbital sodium, arterial blood from the carotid artery was led to circumflex branch of the left coronary artery by a extracorporeal loop. A servocontrolled pure (model 1215D, Harvard Apparatus) was incorporated in the circuit to maintain a constant perfusion pressure of 120 mmHg by means of a pump controller (SCS-22, Data Graph Co., Tokuya Tukada et al., Folia Pharmacol. Japon, 74, 59p, 1978). An electromagnetic flow probe of extracorporeal type (MF-25, Nihon Koden) was also inserted in the circuit to record coronary blood flow. A dose of 1 μg of the compound was administered directly into the coronary artery and then coronary blood flow was monitored until the blood flow returned to the pretreatment value. And then, the area under the percent increase in coronary blood flow after intracoronary injection of 1 μg of the compound was calculated and used as an index of the overall increase in coronary blood flow.

[2] = Hypotensive Effect in Anesthetized Rats; type: in vivo; details: for ED (30 mmHg): Rattus norvegicus, iv, urethane-anesthetized rats, dose required to lower mean blood pressure by 30 mmHg
Experimental: (2) Hypotensive Effect in Anesthetized Rats
Blood pressure was measured in urethane-anesthetized rats. The compound was intravenously administered in an increasing dose manner at an interval of 20 minutes. The doses of the compounds required to lower mean blood pressure by 30 mmHg (ED 30 mmHg) was calculated from the dose-response curves and summarized in Table 2.

[3] = Acute Toxicity in Mice; details: mouse, in vivo; oral, six weeks old male ICR mice, suspended in 0.5% methylcellulose; Litchfield & Wilcoxon
Experimental: (3) Acute Toxicity in Mice
Six weeks old and male ICR mice weighing 27 to 29 g were used. The compound was suspended in 0.5% methylcellulose solution and administered orally to mice. The LD50 values of the compounds were calculated by the method of Litchfield & Wilcoxon (Journal of Pharmacol. & Exp. Therap., 96, 99-113, 1949) and summarized in Table 3.

[4] = U.S. Pat. No. 4,220,649; U. K. Patent No. 2,014,134; cited from earlier work

Compound	Duration of the action [1] [min]	Overall increase in coronary blood flow at 1 μg [1]	ED (30 mmHg) [2] [mg/kg]	hypotensive activity, potency ratio to diastereoisomer B hydrochloride ([2]; anesthetized rats, i.v.)	LD50 [3] [mg/kg]	duration of the vasodilating and hypotensive effect [4]	vasodilating activity and hypotensive activity [4]
COC(=O)C1=C(C)NC(C)=C(C(=O)OC2CCN(Cc3ccccc3)C2)C1c1cccc([N+](=O)[O-])c1 (racemic) [Equivalent mixture of the hydrochlorides of diastereoisomers]	10	129 ± 47 %, min.					
COC(=O)C1=C(C)NC(C)=C(C(=O)OC2CCN(Cc3ccccc3)C2)C1c1cccc([N+](=O)[O-])c1 (racemic) [Diastereoisomer B (dl form) hydrochloride]	5	120 ± 28 %, min.	0.14				
COC(=O)C1=C(C)NC(C)=C(C(=O)OC2CCN(Cc3ccccc3)C2)C1c1cccc([N+](=O)[O-])c1 (single isomer, unassigned) [Diastereoisomer A (dl form) hydrochloride, 2,6-dimethyl-4-(3-nitro-phenyl)-1,4-dihydropyridine-3,5-dicarboxylic acid 3-(1-benzylpyrrolidin-3-yl)ester 5-methyl ester]	60	1816 ± 377 %, min.	0.002	about 70 times	295		
COC(=O)C1=C(C)NC(C)=C(C(=O)OC2CCN(Cc3ccccc3)C2)C1c1cccc([N+](=O)[O-])c1 (stereo not drawn) [YM-09730, 2,6-dimethyl-4-(3-nitropheny)-1,4-dihydropyridine-3,5-dicarboxylic acid 3-(1-benzylpyrrolidin-3-yl)ester 5-methyl ester]						prolonged effect	has a vasodilating activity and a hypotensive activity
COC(=O)C1=C(C)NC(C)=C(C(=O)O[C@H]2CCN(Cc3ccccc3)C2)C1c1cccc([N+](=O)[O-])c1 (single isomer, unassigned) [Diastereoisomer A (d form) hydrochloride]	120	4559 ± 894 %, min.			190		

Source: patent publication US5616715A, “Dihydropyridine-3, 5-dicarboxylic acid ester derivatives” (Yamanouchi Pharmaceutical Co., Ltd., priority 1984, dated 1997)
